Read-outs that look alike come from different tables or passages of the source. Marks after values point to notes of the source that are not given here.
Assays:
[1] = tested on: Staphylococci; assay: Antibiotic-sensitivity of staphylococci from skin lesions (MIC, series cultivation); type: cell-based
Excerpt: Staphylococci extracted from dermal lesions were initially sensitive to 10 of the 15 antibiotics being assayed (Table 25).

[2] = tested on: methicillin-resistant Staphylococcal aureus; conditions: 5 test animals
[3] = tested on: Mycobacterium tuberculosis; conditions: in vivo
[4] = staphylococci from patients After IM862
[5] = staphylococci from patients Before IM862

| Compound | MIC g/ml [1, 4] | MIC g/ml [1, 5] | also measured |
| --- | --- | --- | --- |
| Cc1nnc(SCC2=C(C(=O)O)N3C(=O)[C@@H](NC(=O)Cn4cnnn4)[C@H]3SC2)s1 [Kefzol] | 1.86 ± 0.93^y g/ml | – | – |
| NC[C@H]1O[C@H](O[C@H]2[C@H](O)[C@@H](O[C@H]3O[C@H](CO)[C@@H](O)[C@H](N)[C@H]3O)[C@H](N)C[C@@H]2N)[C@H](O)[C@@H](O)[C@@H]1O [Kanamycin] | 2.09 ± 0.54^yy g/ml | 6.32 ± 0.58^x g/ml | – |
| Cc1onc(-c2ccccc2)c1C(=O)N[C@@H]1C(=O)N2[C@@H]1SC(C)(C)[C@@H]2C(=O)O [Oxycillin] | 1.56 ± 0.45^yy g/ml | 5.11 ± 0.63^x g/ml | – |
| [H]/N=C(/N)N[C@H]1[C@H](O)[C@@H](O)[C@H](O[C@@H]2O[C@@H](C)[C@](O)(C=O)[C@H]2O[C@@H]2O[C@@H](CO)[C@H](O)[C@@H](O)[C@@H]2NC)[C@@H](N/C(N)=N\[H])[C@@H]1O [Streptomycin] | 3.39 ± 0.66^yy g/ml | 6.71 ± 0.59^x g/ml | – |
| Gentamycin | 1.32 ± 0.49^yy g/ml | 5.47 ± 0.92^x g/ml | – |
| O=C(N[C@H](CO)[C@H](O)c1ccc([N+](=O)[O-])cc1)C(Cl)Cl [Levomicetin] | 4.58 ± 0.67^yy g/ml | 9.17 ± 0.36^x g/ml | – |
| Penicillin | 2.52 ± 0.70^yy g/ml | 9.45 ± 0.28^x g/ml | – |
| CC1(C)S[C@@H]2[C@H](NC(=O)[C@H](N)c3ccccc3)C(=O)N2[C@H]1C(=O)O [Ampicillin, reference compound] | 2.64 ± 0.60^yy g/ml | 8.10 ± 0.49^x g/ml | Survivors ([2]; 100 mg/kg Ampicillin, pre-treated with normal saline i.p.): no survivors; Percent ip Survivors ([2]; Group 1: IM862 control (0) pretreatment, ampicillin 100 mg/kg 1 hr after inoculation, 72 hours): 0%; Survivors ([2]; Group 1: IM862 control (0) pretreatment, ampicillin 100 mg/kg 1 hr after inoculation, survivors at 72 hours): 0 |
| c1ccc([C@H]2CN3CCSC3=N2)cc1 [decaris, reference compound] | – | – | disintegration cavities closed, number of patients [3]: 10 patients; improvement, number of patients [3]: 18; no improvement, number of patients [3]: 3 patients; significant improvement, number of patients [3]: only one case |
| CC(=O)OCC1=C(C(=O)O)N2C(=O)[C@@H](NC(=O)Cc3cccs3)[C@H]2SC1 [Keflin] | 1. ± 0.69^y g/ml | – | – |
| Cc1nnc(SCC2=C(C(=O)O)N3C(=O)[C@@H](NC(=O)Cn4cnnn4)[C@H]3SC2)s1 [Cefamezin] | 1.33 ± 0.53^yy g/ml | – | – |
